Measured values: patent publication US9249139B2, “Indolizinone based derivatives as potential phosphodiesterase 3 (PDE3) inhibitors and a process for the preparation thereof” (COUNCIL OF SCIENTIFIC & INDUSTRIAL RESEARCH, priority 2013, dated 2016)
pIC50: −log10 of the molar value.

Target: PDE3 enzyme (Homo sapiens (Human), UniProt Q14432)
Assay: PDE3 inhibition assay, BIOMOL GREEN Quantizyme Assay System
Assay type: biochemical
Settings: PDE3 enzyme from platelets isolated from human blood; cAMP substrate; 1 hour at 37° C.; read at 620 nm
Experimental: PDE3 inhibition assay was performed a BIOMOL GREEN™ Quantizyme Assay System (catalogue No. BML-AK800-0001). The Platelets isolated from human blood were used as a source of PDE3 enzyme. 10 mL blood collected in a vacutainer tube (containing K3 EDTA) and centrifuged at 190×g for 15 min at room temperature. Top layer (platelet rich plasma) collected, centrifuged at 2500g for 5 min at 22° C. (Room temp.) The pellet was washed with 2 ml of 50 mM tris buffer (pH-7.4) containing 1 mM MgCl2 and centrifuged at 2500 g for 5 min. Then 200 μl of assay buffer (from PDE kit, Enzo Life Sciences) was added to the pellet and sonicated at 30 s per ml. Pellet was freeze thawed for three times (−80° C.) in order to rupture the platelet membrane and release the PDE enzyme. Then the cell homogenate was centrifuged at 2500 rpm for 5 min. Supernatant was collected and used as source for PDE3 enzyme. In 96 well plate (Prod. No. BML-KI101), we added supernatant having PDE3 enzyme, PDE3 assay buffer, cAMP substrate, 5′nucleotidase and test or standard compound and incubated for 1 hour at 37° C. The reaction was arrested by the addition 100 μl BIOMOL GREEN reagent incubated in room temp for 20 min. The green color developed was measured at 620 nm
The in vitro Phosphodiestarase (PDE3) inhibitory activity of compounds 1a-p were measured using a BIOMOL GREEN™ Quantizyme Assay System (catalogue No. BML-AK800-0001). The basic principle for this assay is the cleavage of c-AMP or c-GMP into their respective nucleotide by a cyclic nucleotide phosphodiesterase. The nucleotide (AMP or GMP) released is further cleaved into the nucleoside and phosphate by the enzyme 5′-nucleotidase. The extent of phosphate released is directly proportional to the PDE activity. In this screening method, the released phosphate by the enzymatic cleavage is quantified using BIOMOL GREEN reagent in a modified malachite green assay. The resulting green colour with λmax at 620 nm is directly proportional to the released phosphate and then PDE activity.

Chain of PDE3 enzyme (Q14432 whole entry): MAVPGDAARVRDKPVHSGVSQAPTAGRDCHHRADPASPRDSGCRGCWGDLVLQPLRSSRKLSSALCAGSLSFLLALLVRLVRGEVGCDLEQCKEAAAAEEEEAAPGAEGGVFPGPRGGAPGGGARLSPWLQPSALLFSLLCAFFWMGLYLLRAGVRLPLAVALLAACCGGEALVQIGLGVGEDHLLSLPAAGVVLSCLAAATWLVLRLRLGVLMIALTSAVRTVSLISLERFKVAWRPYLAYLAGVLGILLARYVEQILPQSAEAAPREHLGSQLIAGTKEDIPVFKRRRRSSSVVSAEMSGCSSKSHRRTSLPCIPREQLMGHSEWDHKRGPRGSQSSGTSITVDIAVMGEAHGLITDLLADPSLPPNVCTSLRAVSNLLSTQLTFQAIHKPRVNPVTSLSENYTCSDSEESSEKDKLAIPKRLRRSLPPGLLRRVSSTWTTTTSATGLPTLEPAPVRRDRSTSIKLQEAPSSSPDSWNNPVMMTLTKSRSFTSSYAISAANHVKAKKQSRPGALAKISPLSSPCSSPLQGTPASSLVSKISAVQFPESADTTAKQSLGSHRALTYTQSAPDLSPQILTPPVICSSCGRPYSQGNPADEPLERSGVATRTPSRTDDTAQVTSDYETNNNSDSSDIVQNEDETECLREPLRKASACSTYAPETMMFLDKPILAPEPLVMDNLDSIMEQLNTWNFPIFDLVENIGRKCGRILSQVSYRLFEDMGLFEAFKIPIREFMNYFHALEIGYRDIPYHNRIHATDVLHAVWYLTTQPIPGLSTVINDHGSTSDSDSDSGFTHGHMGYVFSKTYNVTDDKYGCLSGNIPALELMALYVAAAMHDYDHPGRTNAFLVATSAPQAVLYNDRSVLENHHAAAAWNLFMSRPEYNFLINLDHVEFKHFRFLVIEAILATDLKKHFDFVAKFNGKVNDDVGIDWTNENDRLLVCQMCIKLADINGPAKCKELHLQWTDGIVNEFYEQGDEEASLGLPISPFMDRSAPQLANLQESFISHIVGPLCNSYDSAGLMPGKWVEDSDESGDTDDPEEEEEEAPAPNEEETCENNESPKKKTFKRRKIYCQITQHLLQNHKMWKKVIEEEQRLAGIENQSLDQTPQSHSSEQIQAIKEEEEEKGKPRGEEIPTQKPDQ

Row | SMILES | pIC50
1 | CCOC(=O)c1cc(Cc2ccc(Br)cc2)c(=O)n2c1CCC2 [Compound 1k, Ethyl 6-(4-bromobenzyl)-5-oxo-1,2,3,5-tetrahydro-8-indolizinonecarboxylate] | 7.17
2 | CCOC(=O)c1cc(Cc2ccc(F)cc2)c(=O)n2c1CCC2 [Compound 1d, Ethyl 6-(4-fluorobenzyl)-5-oxo-1,2,3,5-tetrahydro-8-indolizinonecarboxylate] | 5.80
3 | CCOC(=O)c1cc(Cc2cccc(F)c2)c(=O)n2c1CCC2 [Compound 1c, Ethyl 6-(3-fluorobenzyl)-5-oxo-1,2,3,5-tetrahydro-8-indolizinonecarboxylate] | 7.87
4 | CCOC(=O)c1cc(Cc2ccc(Cl)cc2Cl)c(=O)n2c1CCC2 [Compound 1h, Ethyl 6-(2,4-dichlorobenzyl)-5-oxo-1,2,3,5-tetrahydro-8-indolizinonecarboxylate] | 6.24

Further compounds by rising pIC50, results first:

Row | pIC50 | SMILES
5 | 6.36 | CCOC(=O)c1cc(Cc2ccccc2)c(=O)n2c1CCC2 [Compound 1a, Ethyl 6-benzyl-5-oxo-1,2,3,5-tetrahydro-8-indolizinonecarboxylate]
6 | 6.89 | CCOC(=O)c1cc(Cc2ccccc2Cl)c(=O)n2c1CCC2 [Compound 1e, Ethyl 6-(2-chlorobenzyl)-5-oxo-1,2,3,5-tetrahydro-8-indolizinonecarboxylate]
7 | 6.97 | CCOC(=O)c1cc(Cc2ccc(Cl)cc2)c(=O)n2c1CCC2 [Compound 1g, Ethyl 6-(4-chlorobenzyl)-5-oxo-1,2,3,5-tetrahydro-8-indolizinonecarboxylate]
8 | 7.95 | CCOC(=O)c1cc(Cc2cccc(Br)c2)c(=O)n2c1CCC2 [Compound 1j, Ethyl 6-(3-bromobenzyl)-5-oxo-1,2,3,5-tetrahydro-8-indolizinonecarboxylate]
